Data from patent US8445674B2, “Heterocyclyl compounds” (Hoffmann-La Roche Inc, priority 2009, dated 2013).

Molecular target: T1, human chemokine receptor 2 isoform B (Homo sapiens, UniProt P41597)
T1 construct: host or cells: CHOK1-CCR2B-A5 cells (CHO-K1)
T1 sequence (P41597 1-360 isoform P41597-2): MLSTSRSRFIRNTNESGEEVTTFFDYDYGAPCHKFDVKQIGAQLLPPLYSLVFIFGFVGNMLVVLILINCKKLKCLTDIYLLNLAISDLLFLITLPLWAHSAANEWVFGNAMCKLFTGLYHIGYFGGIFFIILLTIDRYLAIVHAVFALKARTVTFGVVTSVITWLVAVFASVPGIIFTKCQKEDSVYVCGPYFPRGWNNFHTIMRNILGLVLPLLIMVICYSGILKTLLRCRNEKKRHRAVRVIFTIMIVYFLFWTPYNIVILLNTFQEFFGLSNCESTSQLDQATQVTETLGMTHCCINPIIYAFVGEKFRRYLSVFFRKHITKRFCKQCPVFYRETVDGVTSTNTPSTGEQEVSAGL
Test: Calcium mobilization assay (FLIPR, antagonist activity against MCP-1)
Format: cell-based
Details: Ca mobilisation assay, CHOK1-CCR2B-A5 cells, inhibition of calcium increase induced by 20 nM MCP-1
Method: Calcium Mobilization Assay
CHOK1-CCR2B-A5 cells (from Euroscreen) stably overexpressing the human chemokine receptor 2 isoform B were cultured in Nutrient Hams F12 medium supplemented with 5% FBS, 100 U/ml penicillin, 100 μg/ml streptomycin, 400 μg/ml G418 and 5 μg/ml puromycin.
For the assay cells were grown overnight in 384-well black clear flat bottom polystyrene plates (Costar) at 37° C. at 5% CO2. After washing with DMEM, 20 mM Hepes, 2.5 mM probenecid, 0.1% BSA (DMEM assay buffer) cells were loaded with 4 μM Fluo-4 in the same DMEM assay buffer for 2 hours at 30° C. Excess dye was removed and cells were washed with DMEM assay buffer. 384-well compound plates were prepared with DMEM assay buffer/0.5% DMSO with or without various concentrations of test compounds. Usually compounds were tested for agonist and antagonist activity.
Test compounds were added to the assay plate and agonist activity was monitored as fluorescence for 80 seconds with a FLIPR (488 nm excitation; 510-570 nm emission; Molecular Devices). After 20-30 min. of incubation at 30° C., 20 nM MCP-1 (R&D; Roche) was added and fluorescence was monitored again for 80 seconds. Increases in intracellular calcium are reported as maximum fluorescence after agonist exposure minus basal fluorescence before exposure. Antagonist activity is indicated as inhibitor concentration required for 50% inhibition of specific calcium increases.

Compound | IC50 [nM]
C[C@H]1C(=O)N(CCCC(=O)N2CCC3(CC3)[C@H](O)C2)CCN1C(=O)Nc1ccc(Cl)c(Cl)c1 [Example 25, (S)-4-[4-((S)-4-Hydroxy-6-aza-spiro[2.5]oct-6-yl)-4-oxo-butyl]-2-methyl-3-oxo-piperazine-1-carboxylic acid (3,4-dichloro-phenyl)-amide] | 3.6
C[C@H]1C(=O)N(C[C@@H](O)CC(=O)N2CCC3(CC3)[C@H](O)C2)CCN1C(=O)Nc1ccc(C(F)(F)F)c(C(F)(F)F)c1 [Example 48, (S)-4-[(S)-2-Hydroxy-4-((S)-4-hydroxy-6-aza-spiro[2.5]oct-6-yl)-4-oxo-butyl]-2-methyl-3-oxo-piperazine-1-carboxylic acid (3,4-bis-trifluoromethyl-phenyl)-amide] | 2.4
O=C(/C=C/c1ccc(Cl)c(Cl)c1)N1CCC(=O)N(C(CO)CC(=O)N2CCCCC2)CC1 (racemic) [Example 6, rac-(1-[(E)-3-(3,4-Dichloro-phenyl)-acryloyl]-4-(1-hydroxymethyl-3-oxo-3-piperidin-1-yl-propyl)-[1,4]diazepan-5-one)] | 2020
C[C@H]1C(=O)N(CCCC(=O)N2CCC3(CC3)[C@H](O)C2)CCN1C(=O)Nc1ccc(OC(F)(F)F)c(Cl)c1 [Example 34, (S)-4-[4-((S)-4-Hydroxy-6-aza-spiro[2.5]oct-6-yl)-4-oxo-butyl]-2-methyl-3-oxo-piperazine-1-carboxylic acid (3-chloro-4-trifluoromethoxy-phenyl)-amide] | 1.7
C[C@H]1C(=O)N(CCCC(=O)N2CCC3(CC3)[C@H](O)C2)CCN1c1ccc(Cl)c(Cl)c1 [Example 59, (S)-4-(3,4-dichloro-phenyl)-1-[4-((S)-4-hydroxy-6-aza-spiro[2.5]oct-6-yl)-4-oxo-butyl]-3-methyl-piperazin-2-one] | 23.2
C[C@H]1C(=O)N(CCCC(=O)N2CCC3(CC3)[C@H](O)C2)CCN1C(=O)Nc1ccc(C(F)(F)F)c(Cl)c1 [Example 33, (S)-4-[4-((S)-4-Hydroxy-6-aza-spiro[2.5]oct-6-yl)-4-oxo-butyl]-2-methyl-3-oxo-piperazine-1-carboxylic acid (3-chloro-4-trifluoromethyl-phenyl)-amide] | 4.4
O=C(/C=C/c1ccc(Cl)c(Cl)c1)N1CCC(=O)N(CCC(=O)N2CCC(O)CC2)CC1 [Example 1, 1-[(E)-3-(3,4-Dichloro-phenyl)-acryloyl]-4-[3-(4-hydroxy-piperidin-1-yl)-3-oxo-propyl]-[1,4]diazepan-5-one] | 2660
C[C@H]1C(=O)N(CCCC(=O)N2CCC3(CC3)[C@H](O)C2)CCN1C(=O)Nc1ccc(Cl)cc1 [Example 27, (S)-4-[4-((S)-4-Hydroxy-6-aza-spiro[2.5]oct-6-yl)-4-oxo-butyl]-2-methyl-3-oxo-piperazine-1-carboxylic acid (4-chloro-phenyl)-amide] | 85
C[C@H]1C(=O)N(CC(O)CC(=O)N2CCC3(CC3)[C@H](O)C2)CCN1C(=O)Nc1ccc(OC(F)(F)F)c(Cl)c1 (stereo partly drawn) [Example 44, (S)-4-[(R,S)-2-Hydroxy-4-((S)-4-hydroxy-6-aza-spiro[2.5]oct-6-yl)-4-oxo-butyl]-2-methyl-3-oxo-piperazine-1-carboxylic acid (3-chloro-4-trifluoromethoxy-phenyl)-amide] | 2.7
O=C(/C=C/c1ccc(Cl)c(Cl)c1)N1CCC(=O)N(CCC(=O)N2CC[C@H](O)[C@H](O)C2)CC1 (racemic) [Example 2, 1-[(E)-3-(3,4-Dichloro-phenyl)-acryloyl]-4-[3-((3RS,4SR)-3,4-dihydroxy-piperidin-1-yl)-3-oxo-propyl]-[1,4]diazepan-5-one] | 1970
C[C@H]1C(=O)N(CCCC(=O)N2CCC3(CC3)[C@H](O)C2)CCN1C(=O)Nc1ccc(Cl)c(C(F)(F)F)c1 [Example 32, (S)-4-[4-((S)-4-Hydroxy-6-aza-spiro[2.5]oct-6-yl)-4-oxo-butyl]-2-methyl-3-oxo-piperazine-1-carboxylic acid (4-chloro-3-trifluoromethyl-phenyl)-amide] | 5.9
C[C@H]1C(=O)N([C@H](CO)CCC(=O)N2CCC3(CC3)[C@H](O)C2)CCN1C(=O)Nc1ccc(OC(F)(F)F)c(Cl)c1 [Example 55, (S)-4-[(S)-4-((S)-4-Hydroxy-6-aza-spiro[2.5]oct-6-yl)-1-hydroxymethyl-4-oxo-butyl]-2-methyl-3-oxo-piperazine-1-carboxylic acid (3-chloro-4-trifluoromethoxy-phenyl)-amide] | 1.8
C[C@H]1C(=O)N(C[C@@H](O)CC(=O)N2CCC3(CC3)[C@H](O)C2)CCN1C(=O)Nc1ccc(OC(F)(F)F)c(Cl)c1 [Example 45, (S)-4-[(S)-2-hydroxy-4-((S)-4-hydroxy-6-aza-spiro[2.5]oct-6-yl)-4-oxo-butyl]-2-methyl-3-oxo-piperazine-1-carboxylic acid (3-chloro-4-trifluoromethoxy-phenyl)-amide] | 2

The remaining lines, values ahead:

IC50 [nM] | Compound
1540 | CC1(O)CCCN(C(=O)CCN2CCN(C(=O)/C=C/c3ccc(Cl)c(Cl)c3)CCC2=O)C1 (racemic) [Example 74, (rac)-1-[(E)-3-(3,4-Dichloro-phenyl)-acryloyl]-4-[3-(3-hydroxy-3-methyl-piperidin-1-yl)-3-oxo-propyl]-[1,4]diazepan-5-one]
1340 | C[C@H]1C(=O)N(CCCC(=O)N2CCS(=O)(=O)CC2)CCN1C(=O)Nc1cccc(Cl)c1 [Example 110, (S)-4-[4-(1,1-Dioxo-1 lambda*6*-thiomorpholin-4-yl)-4-oxo-butyl]-2-methyl-3-oxo-piperazine-1-carboxylic acid (3-chloro-phenyl)-amide]
191 | COC(=O)[C@H](CCC(=O)N1CCC2(CC2)[C@H](O)C1)N1CC(C)N(c2ccc(C(F)(F)F)c(C(F)(F)F)c2)CCC1=O (stereo partly drawn) [Example 127, (S)-2-[(R,S)-4-(3,4-Bis-trifluoromethyl-phenyl)-3-methyl-7-oxo-[1,4]diazepan-1-yl]-5-((S)-4-hydroxy-6-aza-spiro[2.5]oct-6-yl)-5-oxo-pentanoic acid methyl ester]
51.2 | O=C(/C=C/c1ccc(Cl)c(Cl)c1)N1CCC(=O)N(CCC(=O)N2CCC(O)(c3ccncc3)CC2)CC1 [Example 78, 1-[(E)-3-(3,4-Dichloro-phenyl)-acryloyl]-4-[3-(4-hydroxy-3,4,5,6-tetrahydro-2H-[4,4′]bipyridinyl-1-yl)-3-oxo-propyl)-[1,4]diazepan-5-one]
971 | O=C(/C=C/c1ccc(Cl)c(Cl)c1)N1CCC(=O)N(CCC(=O)N2CCC(O)(c3ccccn3)CC2)CC1 [Example 76, 1-[(E)-3-(3,4-Dichloro-phenyl)-acryloyl]-4-[3-(4'-hydroxy-3′,4′,5′,6′-tetrahydro-2′H-[2,4′]bipyridinyl-1′-yl)-3-oxo-propyl]-[1,4]diazepan-5-one]
3250 | CN1CCN(C(=O)CCN2CCN(C(=O)/C=C/c3ccc(Cl)c(Cl)c3)CCC2=O)CC1=O [Example 80, 1-[(E)-3-(3,4-Dichloro-phenyl)-acryloyl]-4-[3-(4-methyl-3-oxo-piperazin-1-yl)-3-oxo-propyl]-[1,4]diazepan-5-one]
41.7 | C[C@H]1C(=O)N(CCCC(=O)N2CCC3(CC3)[C@H](O)C2)CCN1c1ccc(Cl)c(OC(F)(F)F)c1 [Example 62, (S)-4-(4-chloro-3-trifluoromethoxy-phenyl)-1-[4-((S)-4-hydroxy-6-aza-spiro[2.5]oct-6-yl)-4-oxo-butyl]-3-methyl-piperazin-2-one]
1.4 | C[C@H]1C(=O)N(CCC(F)C(=O)N2CCC3(CC3)[C@H](O)C2)CCN1C(=O)Nc1ccc(C(F)(F)F)c(Cl)c1 (single isomer, unassigned) [Example 138, (S)-4-[(S or R)-3-fluoro-4-((S)-4-hydroxy-6-aza-spiro[2.5]oct-6-yl)-4-oxo-butyl]-2-methyl-3-oxo-piperazine-1-carboxylic acid (3-chloro-4-trifluoromethyl-phenyl)-amide]
152 | C[C@@H]1CN(CCC(=O)N2CCC(C)(O)CC2)C(=O)CCN1C(=O)/C=C/c1cccc(Cl)c1 [Example 102, (R)-1-[(E)-3-(3-Chloro-phenyl)-acryloyl]-4-[3-(4-hydroxy-4-methyl-piperidin-1-yl)-3-oxo-propyl]-2-methyl-[1,4]diazepan-5-one]
4870 | C[C@H]1C(=O)N(CCCC(=O)N2CCC3(CC2)CNC(=O)O3)CCN1C(=O)Nc1cccc(Cl)c1 [Example 107, (S)-2-Methyl-3-oxo-4-[4-oxo-4-(2-oxo-1-oxa-3,8-diaza-spiro[4.5]dec-8-yl)-butyl]-piperazine-1-carboxylic acid (3-chloro-phenyl)-amide]
481 | O=C(/C=C/c1ccc(Cl)c(Cl)c1)N1CCC(=O)N(CCC(=O)N2CCC(CO)CC2)CC1 [Example 69, 1-[(E)-3-(3,4-Dichloro-phenyl)-acryloyl]-4-[3-(4-hydroxymethyl-piperidin-1-yl)-3-oxo-propyl]-[1,4]diazepan-5-one]
